# Source: patent publication US7547521B2, “Heteromultimeric ion channel receptor and uses thereof” (McGill University, priority 2000, dated 2009)
# “Also recorded” adds a separate entry of the source.
# Legend:
# [1] = tested on: homomultimeric (ASIC2A or ASIC3) and heteromultimeric (ASIC-2S.2) channels; experiment: Proton-induced inward currents in oocytes expressing homomultimeric or heteromultimeric ASIC channels; format: cell-based; conditions: human and rat ASIC2A, ASIC3 or ASIC-2S.2-expressing oocytes
# Protocol: (§1) According to method 1 described above, nuclei of Xenopus oocytes are injected with ASIC2A and ASIC3 cDNAs separately subcloned into pcDNA3 expression vector (1-5 ng). Control oocytes are injected with H2O. Oocytes are maintained at 18° C. in modified Barth's solution. Proton-activated currents are measured by two-electrode voltage clamp 1-3 days after injection. During voltage clamp (−60 mV/−100 mV)), oocytes are bathed in 116 mM NaCl, 2 mM KCl, 1.8 mM CaCl2, 10 mM acetic acid and 5 mM Hepes (pH 7.4 with NaOH). To determine proton-gating, bath solution is quickly switched to a solution of pH<7.4 for 10 sec, then returned to bath solution for washout. The stimulating solution is prepared by lowering the pH of the original bath solution with hydrochloric acid. The osmolality of the solutions is verified with an osmometer and corrected with mannitol or choline chloride. To document ionic selectivity, NaCl is replaced with LiCl or KCl. Current-voltage relationships are determined by stepping from a holding potential of −60 mV to potentials between −100 and +60 mV for 10 seconds before and during stimulation with low pH solution. FIGS. 1A (human) and 1B (rat) compare proton-activated currents carried by homomultimeric ASIC2A and ASIC3 receptors to the heteromultimeric ASIC-2S.2 receptors (ASIC2a+3). […] Species differences are also noteworthy. Indeed, using human subunits, both the early fast and sustained currents are strongly potentiated, while in the case of rat, the major effect appears to be on the sustained current only.
# As described in example 2, voltage clamped oocytes expressing the ASIC-2S.2 channels are used to screen for molecules capable of modulating, activating or inhibiting channel activity.
# [2] = biological target: T1, human ASIC2S.2 (ASIC2A+3) receptors (Homo sapiens, UniProt Q16515+Q9UHC3, A14P/I85V/M358I/P13Q); experiment: Two-electrode voltage clamp of proton-gated currents in Xenopus oocytes expressing human ASIC2S.2; format: cell-based; conditions: 100 μM FMRFamide; normalised to maximal control current at pH 3
# T1 construct: allowing RT-PCR amplified full length nucleic acids to be directionally subcloned into pcDNA3; expressed in transfected cells; host or cells: Xenopus laevis oocytes (nuclear injection of pcDNA3 cDNAs)
# T1 sequence (Q16515 1-512): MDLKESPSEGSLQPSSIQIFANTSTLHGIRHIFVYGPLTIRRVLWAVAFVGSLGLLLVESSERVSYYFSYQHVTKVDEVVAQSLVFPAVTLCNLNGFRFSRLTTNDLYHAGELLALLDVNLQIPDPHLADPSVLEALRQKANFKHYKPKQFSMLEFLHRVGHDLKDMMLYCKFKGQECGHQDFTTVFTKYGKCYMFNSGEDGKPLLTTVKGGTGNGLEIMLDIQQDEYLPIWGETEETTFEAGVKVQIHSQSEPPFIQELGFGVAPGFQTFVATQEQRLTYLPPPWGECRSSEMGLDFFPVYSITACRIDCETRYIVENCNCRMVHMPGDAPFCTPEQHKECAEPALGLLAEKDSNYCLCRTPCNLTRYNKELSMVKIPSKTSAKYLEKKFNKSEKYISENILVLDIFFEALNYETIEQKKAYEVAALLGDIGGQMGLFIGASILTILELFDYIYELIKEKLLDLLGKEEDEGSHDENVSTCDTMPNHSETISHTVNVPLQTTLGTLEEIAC
# T1 sequence (Q9UHC3 1-531 P13Q/A14P/I85V/M358I): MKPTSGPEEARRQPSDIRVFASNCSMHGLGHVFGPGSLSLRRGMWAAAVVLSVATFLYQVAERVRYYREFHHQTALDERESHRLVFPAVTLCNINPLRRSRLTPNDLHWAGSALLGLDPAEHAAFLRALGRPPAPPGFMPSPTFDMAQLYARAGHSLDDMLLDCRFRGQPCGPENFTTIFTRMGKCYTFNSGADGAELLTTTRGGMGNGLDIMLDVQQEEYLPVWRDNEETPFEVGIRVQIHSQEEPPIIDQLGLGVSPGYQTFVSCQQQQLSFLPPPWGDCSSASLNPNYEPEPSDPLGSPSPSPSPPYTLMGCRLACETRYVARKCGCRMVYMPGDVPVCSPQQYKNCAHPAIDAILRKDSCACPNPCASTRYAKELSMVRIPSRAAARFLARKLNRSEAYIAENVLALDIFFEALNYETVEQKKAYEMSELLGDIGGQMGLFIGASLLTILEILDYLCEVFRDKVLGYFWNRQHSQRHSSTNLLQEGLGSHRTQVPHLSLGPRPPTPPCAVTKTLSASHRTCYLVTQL
# Protocol: as §1, with “Indeed, using human subunits, both the early fast and sustained currents are strongly potentiated, while in the case of rat, the major effect appears to be on the sustained current only.” left out
Compound,Effect on proton-induced inward currents [1],Effect on proton-induced inward currents ([1]; listed as gadolinium),Sensitivity and maximal response to acidification (pH dose-response curve) [2]
N=C(N)NC(=O)c1nc(Cl)c(N)nc1N [amiloride],inhibitory effects; also recorded: antagonistic effects,–,–
"[Gd+3] [gadolinium ions, gadolinium]",antagonistic effects,inhibitory effects,–
FMRFamide,–,–,increased
